Data as given in PubChem BioAssay (NCI).
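Five concentrations, 48 hours, 96-well plates. TGI denotes the concentration required for complete inhibition of growth.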

These compounds were tested on COLO 205 colon (assay: growth of human tumour cells (NCI), 48 h).

Compared with `N#Cc1cccc(-n2[nH]c(=O)ccc2=O)c1`, `O=C1/C(=C\c2ccc(Cl)cc2Cl)Sc2scc(-c3ccc(O)c(O)c3)[n+]21` is lower in TGI: greater than 100 µM for the first, 40.5 µM for the second.

`CCN(CC)CCCNC(=O)c1cc(-c2nccn2C)nc2ccccc12` and `CCOC(=O)C(=[N+]=[N-])C(=O)CN1C(=O)c2ccccc2C1=O` cannot be ordered by TGI: greater than 100 µM for the first, greater than 100 µM for the second.

Compared with `O=C1/C(=C/c2ccco2)NC(=S)N1CN1CCCCC1`, `CC(C)=C[C@H]1C[C@H](C)[C@H]2CC[C@H](C)c3c2c1c(C)c1ncoc31` is lower in TGI: greater than 100 µM for the first, 33.6 µM for the second.

`CCOC(=O)CCCSCCCC(=O)CCCSCCCC(=O)OCC` gave a TGI greater than 100 µM.

Each compound was assayed on SF-539 CNS (assay: growth of human tumour cells (NCI), 48 h).

`CCCCCCc1cc2cc(-c3cn4ccsc4n3)c(=O)oc2cc1O` and `CCN(CC)CCCNC(=O)c1cc(-c2nccn2C)nc2ccccc12` cannot be ordered by TGI: greater than 100 µM for the first, greater than 100 µM for the second.

Going from `COC(=O)[C@]1(C)CCC[C@@]2(C)C1CC[C@@]13C=C(C(C)C)[C@@H](CC1=O)CC23` (stereo not given in full) to `COC(=O)c1cccc(C)c1C1CN=NC12Cc1cc(C)cc(C)c1C2=O` (stereo not given), the TGI rises from 37.5 µM to greater than 100 µM.

Going from `Cc1nn(C(=O)Cc2ccccc2)c2c1C(c1ccccc1)SC(N)=N2` (stereo not given) to `Cc1cc(OC(=O)Nc2cccc3ccccc23)c(C(C)C)cc1C(=S)Nc1ccccc1`, the TGI falls from greater than 100 µM to 36.9 µM.

`CCNC(=O)c1ccc(C)c(N=NN(C)C)c1` and `CCOC(=O)c1cc(-c2ccc(OC)cc2)c([N+](=O)[O-])n1C` cannot be ordered by TGI: greater than 100 µM for the first, greater than 10 µM for the second.

`C=CCNC(=S)N/C=C(\C#N)C(N)=O` and `CC(=O)OCCOCNC(=S)N/N=C/c1ccc([N+](=O)[O-])o1` cannot be ordered by TGI: greater than 100 µM for the first, greater than 100 µM for the second.

`CC(C)C(NC(=O)Oc1ccccc1)C(=O)NC1c2c(Br)sc(Br)c2C(=O)C1O` (stereo not given) and `CSC(=O)c1sc(SC)[n+](-c2ccccc2)c1O` cannot be ordered by TGI: greater than 25 µM for the first, 29.5 µM for the second.

First: COCCOCOC(CCCCO)c1cc(C)c(O[Si](C)(C)C(C)(C)C)c(C)c1 (stereo not given)
Second: COc1ccc(C2Oc3cc(OC)c(OC)cc3C2CCl)cc1OC (stereo not given)
The TGI of the first is lower: 26 µM for the first, greater than 100 µM for the second.

`CC1=NN(c2nc(N)nc(COc3ccc(N)cc3)n2)C(C)(C)C1` and `Nc1nc(Cl)cc(OCC2(CO)CC=CC2)n1` cannot be ordered by TGI: greater than 100 µM for the first, greater than 100 µM for the second.

First: COc1cc2c(/C=C3/C(=O)Nc4cccc(Cl)c43)c(Cl)[nH]c2cc1C
Second: O=C1/C(=C\c2ccc(Cl)cc2Cl)Sc2scc(-c3ccc(O)c(O)c3)[n+]21
The TGI of the first is 13-fold lower: 3.38 µM for the first, 45.2 µM for the second.

`Nc1ncc2c(n1)-c1ccccc1OC2N1CCCCC1` (stereo not given) and `COc1ccc(NC(=S)c2ccc(CN3CCCCC3)s2)cc1` cannot be ordered by TGI: greater than 100 µM for the first, greater than 100 µM for the second.

`C[C@]12c3c4cc(NC(=O)C(=O)NCc5ccc(-c6ccccn6)nc5)cc3Oc3cc(NC(=O)C(=O)NCc5ccc(-c6ccccn6)nc5)cc(c31)OC1C=C(NC(=O)C(=O)NCc3ccc(-c5ccccn5)nc3)C=C(O4)C12` (stereo not given in full) and `CCOC(=O)C(=[N+]=[N-])C(=O)CN1C(=O)c2ccccc2C1=O` cannot be ordered by TGI: greater than 100 µM for the first, greater than 100 µM for the second.

First: N#Cc1cccc(-n2[nH]c(=O)ccc2=O)c1
Second: CC(C)=C[C@H]1C[C@H](C)[C@H]2CC[C@H](C)c3c2c1c(C)c1ncoc31
The TGI of the first is higher: greater than 100 µM for the first, 32.5 µM for the second.

`CCOC(=O)CCCSCCCC(=O)CCCSCCCC(=O)OCC` gave a TGI greater than 100 µM.

The compounds below were run on SF-295 CNS (assay: growth of human tumour cells (NCI), 48 h).

`CCCCCCc1cc2cc(-c3cn4ccsc4n3)c(=O)oc2cc1O` and `COc1cc(C2C(Cl)C(=O)N2n2cnc3ccccc3c2=O)ccc1O` (stereo not given) cannot be ordered by TGI: greater than 100 µM for the first, greater than 100 µM for the second.

`COC(=O)[C@]1(C)CCC[C@@]2(C)C1CC[C@@]13C=C(C(C)C)[C@@H](CC1=O)CC23` (stereo not given in full) and `CC(C)C(NC(=O)Oc1ccccc1)C(=O)NC1c2c(Br)sc(Br)c2C(=O)C1O` (stereo not given) cannot be ordered by TGI: 68.3 µM for the first, greater than 25 µM for the second.

Going from `Cc1nn(C(=O)Cc2ccccc2)c2c1C(c1ccccc1)SC(N)=N2` (stereo not given) to `Cc1cc(OC(=O)Nc2cccc3ccccc23)c(C(C)C)cc1C(=S)Nc1ccccc1`, the TGI falls from greater than 100 µM to 36.8 µM.

`CCNC(=O)c1ccc(C)c(N=NN(C)C)c1` and `CCOC(=O)c1cc(-c2ccc(OC)cc2)c([N+](=O)[O-])n1C` cannot be ordered by TGI: greater than 100 µM for the first, greater than 10 µM for the second.

`C=CCNC(=S)N/C=C(\C#N)C(N)=O` and `CC(=O)OCCOCNC(=S)N/N=C/c1ccc([N+](=O)[O-])o1` cannot be ordered by TGI: greater than 100 µM for the first, greater than 100 µM for the second.

`COc1ccc(C2=CC(C(C)=C(C(N)=O)C(N)=O)C=C(c3ccc(Br)cc3)C2)c(OC)c1` (stereo not given) and `O=C1c2sc(-c3ccc(Cl)cc3)cc2-n2cccc21` cannot be ordered by TGI: greater than 100 µM for the first, greater than 100 µM for the second.

First: COCCOCOC(CCCCO)c1cc(C)c(O[Si](C)(C)C(C)(C)C)c(C)c1 (stereo not given)
Second: COc1cc2c(/C=C3/C(=O)Nc4cccc(Cl)c43)c(Cl)[nH]c2cc1C
The TGI of the first is 3.9-fold higher: 16.3 µM for the first, 4.21 µM for the second.

First: CSC(=O)c1sc(SC)[n+](-c2ccccc2)c1O
Second: O=C1c2ccccc2-n2nnnc2C2CSCN12 (stereo not given)
The TGI of the first is lower: 32 µM for the first, greater than 100 µM for the second.

First: CC1=NN(c2nc(N)nc(COc3ccc(N)cc3)n2)C(C)(C)C1
Second: COc1ccc(NC(=S)c2ccc(CN3CCCCC3)s2)cc1
The TGI of the first is higher: greater than 100 µM for the first, 38.1 µM for the second.

`Nc1ncc2c(n1)-c1ccccc1OC2N1CCCCC1` (stereo not given) and `O=C1/C(=C/c2ccco2)NC(=S)N1CN1CCCCC1` cannot be ordered by TGI: greater than 100 µM for the first, greater than 100 µM for the second.

`C[C@]12c3c4cc(NC(=O)C(=O)NCc5ccc(-c6ccccn6)nc5)cc3Oc3cc(NC(=O)C(=O)NCc5ccc(-c6ccccn6)nc5)cc(c31)OC1C=C(NC(=O)C(=O)NCc3ccc(-c5ccccn5)nc3)C=C(O4)C12` (stereo not given in full) and `N#Cc1cccc(-n2[nH]c(=O)ccc2=O)c1` cannot be ordered by TGI: greater than 100 µM for the first, greater than 100 µM for the second.

Compound `O=c1[nH]c(=O)c2c3n(cc2[nH]1)CCCCC3` has a TGI greater than 100 µM.
